Laboratory results: ChEMBL document CHEMBL3232732, “A,D-seco-limonoids from the stems of Clausena emarginata” (J Nat Prod, 2014)
The source made the active and inactive calls. The calls are words filed in the database; no cut-off is given here.

Assays:
Format in all cases: functional, cell-based
HepG2 = test: Cytotoxicity against human HepG2 cells after 96 hrs by MTT assay; settings: HepG2, 96 h
HCT-116 = test: Cytotoxicity against human HCT116 cells after 96 hrs by MTT assay; settings: HCT-116, 96 h
SK-OV-3 = test: Cytotoxicity against human SKOV3 cells after 96 hrs by MTT assay; settings: SK-OV-3, 96 h
NCI-H1650 = test: Cytotoxicity against human NCI-H1650 cells after 96 hrs by MTT assay; settings: NCI-H1650, 96 h
[1] = Cytotoxicity against human BGC823 cells after 96 hrs by MTT assay; settings: BGC-823, 96 h
BV-2 = test: Inhibition of LPS-induced NO production in mouse BV2 cells compound pre-treated for 1 hr before LPS addition measured after 24 hrs by Griess assay

Row | IC50 (BV-2) [µM] | SMILES | IC50 (HepG2) [µM] | IC50 (HCT-116) [µM] | IC50 (SK-OV-3) [µM] | IC50 (NCI-H1650) [µM] | IC50 [1] [µM] | inhibition (BV-2)
1 |  | COC(=O)C[C@H]1OC(C)(C)[C@@H]2CC(=O)[C@]3(C)[C@H]([C@@H](O)C[C@@]4(C)[C@H](C5=CC(O)OC5=O)OC(=O)[C@H]5O[C@]543)[C@@]12C (relative stereo) | > 10 | > 10 | > 10 | > 10 | > 10 | inactive
2 | 5.3 | CC1(C)OC(=O)C=C[C@]2(C)[C@H]3[C@@H](O)C[C@@]4(C)[C@H](c5ccoc5)OC(=O)[C@H]5O[C@]54[C@]3(C)C(=O)C[C@@H]12 | > 10 | > 10 | > 10 | > 10 | > 10 | 
3 |  | CC(=O)O[C@H]1CC(=O)OC(C)(C)[C@@H]2CC(=O)[C@]3(C)[C@H]([C@@H](O)C[C@@]4(C)[C@H](C5=CC(O)OC5=O)OC(=O)[C@H]5O[C@]543)[C@@]12C (stereo partly specified) | > 10 | > 10 | > 10 | > 10 | > 10 | inactive
4 | 6.7 | COC(=O)C[C@@H]1OC(C)(C)[C@@H]2CC(=O)[C@]3(C)[C@H]([C@@H](O)C[C@@]4(C)[C@H](c5ccoc5)OC(=O)[C@H]5O[C@]543)[C@@]12C | > 10 | > 10 | > 10 | > 10 | > 10 | 
5 |  | CC1(C)OC(=O)C=C[C@]2(C)[C@H]3[C@@H](O)C[C@@]4(C)[C@@H](C5=CC(=O)OC5O)OC(=O)[C@H]5O[C@]54[C@]3(C)C(=O)C[C@@H]12 (stereo partly specified) | > 10 | > 10 | > 10 | > 10 | > 10 | inactive
6 |  | CC(=O)O[C@H]1CC(=O)OC(C)(C)[C@@H]2CC(=O)[C@]3(C)[C@H]([C@@H](O)C[C@@]4(C)[C@H](c5ccoc5)OC(=O)[C@H]5O[C@]543)[C@@]12C | > 10 | > 10 | > 10 | > 10 | > 10 | inactive
7 |  | CC(=O)O[C@H]1CC(=O)OC(C)(C)[C@@H]2CC(=O)[C@]3(C)[C@H]([C@@H](O)C[C@@]4(C)[C@H](C5=CC(=O)OC5O)OC(=O)[C@H]5O[C@]543)[C@@]12C (relative stereo) | > 10 | > 10 | > 10 | > 10 | > 10 | inactive
8 |  | COC(=O)C[C@H]1OC(C)(C)[C@@H]2CC(=O)[C@]3(C)[C@H]([C@@H](O)C[C@@]4(C)[C@H](C5=CC(=O)OC5O)OC(=O)[C@H]5O[C@]543)[C@@]12C (stereo partly specified) | > 10 | > 10 | > 10 | > 10 | > 10 | inactive
9 | 5.1 | CCOC(=O)C[C@H](OC(C)=O)[C@]1(C)[C@H]2[C@@H](O)C[C@@]3(C)[C@H](c4ccoc4)OC(=O)[C@H]4O[C@]43[C@]2(C)C(=O)C[C@H]1C(C)(C)O | > 10 | > 10 | > 10 | > 10 | > 10 | 
10 | 8.8 | COC(=O)C[C@H](OC(C)=O)[C@]1(C)[C@H]2[C@@H](O)C[C@@]3(C)[C@H](c4ccoc4)OC(=O)[C@H]4O[C@]43[C@]2(C)C(=O)C[C@H]1C(C)(C)O | > 10 | > 10 | > 10 | > 10 | > 10 | 
11 | 7 | COC(=O)C[C@H](O)[C@]1(C)[C@H]2[C@@H](O)C[C@@]3(C)[C@H](c4ccoc4)OC(=O)[C@H]4O[C@]43[C@]2(C)C(=O)C[C@H]1C(C)(C)O | > 10 | > 10 | > 10 | > 10 | > 10 | 
12 | 0.5 | COc1cc(/C=C/C(=O)CC(=O)/C=C/c2ccc(O)c(OC)c2)ccc1O [CURCUMIN] |  |  |  |  |  | 
13 | 10 | COC(=O)C[C@H]1OC(C)(C)[C@@H]2CC(=O)[C@]3(C)[C@H]([C@@H](O)C[C@@]4(C)[C@H](c5ccoc5)OC(=O)[C@H]5O[C@]543)[C@@]12C | > 10 | > 10 | > 10 | > 10 | > 10 | 
14 |  | CC1(C)OC(=O)C=C[C@]2(C)[C@H]3[C@@H](O)C[C@@]4(C)[C@H](C5=CC(O)OC5=O)OC(=O)[C@H]5O[C@]54[C@]3(C)C(=O)C[C@@H]12 (stereo partly specified) | > 10 | > 10 | > 10 | > 10 | > 10 | inactive
15 |  | CC(=O)O[C@@H](CC(=O)O)[C@]1(C)[C@H]2[C@@H](O)C[C@@]3(C)[C@H](C4=CC(O)OC4=O)OC(=O)[C@H]4O[C@]43[C@]2(C)C(=O)C[C@H]1C(C)(C)O (relative stereo) | > 10 | > 10 | > 10 | > 10 | > 10 | inactive
16 |  | CC(C)(O)[C@@H]1CC(=O)[C@]2(C)[C@@H]3[C@H](C[C@@]4(C)[C@H](c5ccoc5)OC(=O)[C@H]5O[C@]542)OC(=O)C=C[C@]31C | > 10 | > 10 | > 10 | > 10 | > 10 | inactive
